Measurements from PubChem BioAssay (NCI).
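Where inhibition never reached the appropriate level, the endpoint shown equals the highest concentration tested. Otherwise, values were interpolated linearly from a five-concentration, 48-hour dose response in 96-well plates. Abbreviation: GI50, concentration required for 50% inhibition of growth. TGI is the concentration that stops growth completely.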

Key:
Assay in all cases: NCI-60 cell line screen, 48 h
UACC-62 melanoma = tested on: UACC-62 melanoma
NCI-H226 lung = tested on: NCI-H226 lung
ACHN renal = tested on: ACHN renal
CAKI-1 renal = tested on: CAKI-1 renal
NCI-H522 lung = tested on: NCI-H522 lung
DU-145 prostate = tested on: DU-145 prostate
MDA-MB-435 = tested on: MDA-MB-435
SNB-19 CNS = tested on: SNB-19 CNS
SK-MEL-5 melanoma = tested on: SK-MEL-5 melanoma
SK-MEL-2 melanoma = tested on: SK-MEL-2 melanoma

Structure (SMILES) | GI50 (UACC-62 melanoma) | TGI (UACC-62 melanoma) | GI50 (NCI-H226 lung) | TGI (NCI-H226 lung) | GI50 (ACHN renal) | TGI (ACHN renal) | GI50 (CAKI-1 renal) | TGI (CAKI-1 renal) | GI50 (NCI-H522 lung) | TGI (NCI-H522 lung) | GI50 (DU-145 prostate) | TGI (DU-145 prostate) | GI50 (MDA-MB-435) | TGI (MDA-MB-435) | GI50 (SNB-19 CNS) | TGI (SNB-19 CNS) | GI50 (SK-MEL-5 melanoma) | TGI (SK-MEL-5 melanoma) | GI50 (SK-MEL-2 melanoma) | TGI (SK-MEL-2 melanoma)
COc1ccc(C2C(C#N)=C(N)Oc3c2sc2c(Br)cccc32)cc1 (stereo not given) | 0.996 µM | 15.4 µM | 6.62 µM | 24 µM | 4.82 µM | 19.3 µM | 2.47 µM | 18.2 µM | 1.75 µM | 6.28 µM | 3.27 µM | 11.2 µM | 0.373 µM | 2.54 µM | 4.04 µM | 21.6 µM | 2.4 µM | 10.7 µM | 2.38 µM | 12.7 µM
COc1ccccc1/C=C\C(=O)C1COCN1 (stereo not given) |  | 31.9 µM |  | 39.7 µM |  | 26.3 µM |  | 42.2 µM |  | 36.1 µM |  | 35.6 µM |  | 26.4 µM |  | 33.9 µM |  | 25.1 µM |  | 56.7 µM
OC1CCCC2CCC[N-]C12.OC1CCCC2CCC[N-]C12.[O]=[V][OH] (stereo not given) | 3.98 µM | 24.7 µM | 42 µM | > 100 µM | 8.21 µM | > 100 µM | 21.9 µM | 85.3 µM | 0.743 µM | 25.7 µM | 19.7 µM | > 100 µM | 7.44 µM | > 100 µM | 53.1 µM | > 100 µM | 5.57 µM | 46.2 µM | 9.96 µM | 45 µM
CCOc1ccc(C(C[N+](=O)[O-])Sc2ccccc2N)cc1 (stereo not given) | 10 µM | 21.6 µM | 3.96 µM | 16.2 µM | 11.1 µM | 23.1 µM | 12.9 µM | 25.6 µM | 11.8 µM | 24.9 µM | 4.17 µM | 15 µM | 2.25 µM | 6.95 µM | 9.22 µM | 21.2 µM | 6.34 µM | 19.4 µM | 16.1 µM | 31.2 µM
Clc1cccc(CNc2c3ccccc3nc3ccccc23)c1 | 1.87 µM | 3.98 µM | 2.22 µM | 6.24 µM | 1.59 µM | 3.66 µM | 1.67 µM | 4.82 µM | 1.88 µM | 4.89 µM | 2.57 µM | 7.17 µM | 1.67 µM | 3.13 µM | 2.89 µM | 12.4 µM | 1.72 µM | 3.13 µM | 2 µM | 4.22 µM
O=C(NCCOCCOCCOCCNC(=O)c1cc2c(o1)C(=O)c1ccccc1C2=O)NC12CC3CC(CC(C3)C1)C2 | 0.571 µM | 1.92 µM | 1.56 µM | 3.66 µM | 1.75 µM | 4.21 µM | 2.37 µM | 11.5 µM | 1.78 µM | 4.95 µM | 0.628 µM | 1.89 µM | 0.388 µM | 1.36 µM | 2.06 µM | 8.03 µM | 0.303 µM | 1.02 µM | 2.15 µM | 5.46 µM
COc1cc([N+](=O)[O-])c(S(=O)(=O)O)cc1-n1nc(C(=O)Nc2ccccc2)n[n+]1-c1cc(S(=O)(=O)[O-])c([N+](=O)[O-])cc1OC |  | > 100 µM |  | > 100 µM |  | > 100 µM |  | > 100 µM |  | > 100 µM |  | > 100 µM |  | > 100 µM |  | > 100 µM |  | > 100 µM |  | > 100 µM
CCCCOc1ccc(/C=N/Nc2cc(C)nc3ccc(Br)cc23)cc1 | 1.74 µM | 3.26 µM | 1.83 µM | 3.82 µM | 1.73 µM | 3.11 µM | 1.71 µM | 3.11 µM | 1.72 µM | 3.21 µM | 1.94 µM | 3.87 µM | 1.8 µM | 3.27 µM | 1.86 µM | 3.41 µM | 1.68 µM | 3.05 µM | 1.47 µM | 2.86 µM
COc1ccccc1[As]=[As]c1ccccc1OC (stereo not given) | 0.0663 µM | 0.224 µM | 0.0723 µM | 0.21 µM | 0.0613 µM | 0.186 µM | 0.066 µM | 0.202 µM | 0.0165 µM | 0.0376 µM | 0.0542 µM | 0.173 µM | 0.0511 µM | 0.196 µM | 0.065 µM | 0.193 µM | 0.0468 µM | 0.163 µM | 0.157 µM | 0.3 µM
COc1ccc2c(O)c(/C=C3\N=Nc4ncccc43)oc2c1C[C@@H]1CCNC[C@H]1F | 1.32 µM | 3.79 µM | 0.256 µM | 3.55 µM | 0.51 µM | 2.83 µM | 0.848 µM | 6.47 µM | 0.128 µM | 1.35 µM | 0.809 µM | 4.19 µM | 1.21 µM | 2.79 µM | 0.541 µM | 7.59 µM | 0.869 µM | 8.35 µM | 1.93 µM | 4.04 µM
[N-]=[N+]=NCCCn1c2c(c3ccc([N+](=O)[O-])cc3c1=O)C(=O)c1cc(-c3ccccc3)ccc1-2 | > 100 µM | > 100 µM | > 100 µM | > 100 µM | > 100 µM | > 100 µM | > 100 µM | > 100 µM | > 100 µM | > 100 µM | > 100 µM | > 100 µM | > 100 µM | > 100 µM | > 100 µM | > 100 µM | 89 µM | > 100 µM | > 100 µM | > 100 µM
CS(=O)(=O)c1cccc(Nc2ncc3cc(-c4ccccc4Cl)ccc3n2)c1 | 1.17 µM | 5.74 µM | 2.55 µM | 21.5 µM | 1.01 µM | > 33.3 µM | 0.859 µM | 9.57 µM | 0.773 µM | 2.78 µM | 1.42 µM | > 33.3 µM | 0.657 µM | 1.9 µM | 2.46 µM | > 33.3 µM | 1.08 µM | 4.04 µM | 0.92 µM | 2.61 µM
O=C(Nc1cc(Cl)cc(Cl)c1)c1cccc(NC2=C(Cl)C(=O)N(Cc3ccccc3)C2=O)c1 | 29.2 µM | > 100 µM | 51.4 µM | > 100 µM | 31.9 µM | > 100 µM | 30.3 µM | > 100 µM | 28.5 µM | > 100 µM | 32.1 µM | > 100 µM | 21.8 µM | 88.1 µM | 54 µM | > 100 µM | 16.6 µM | 34.8 µM | 65.2 µM | > 100 µM
